In test [1] the test system is glucocorticoid receptor (GR) transcriptional activity. The following applies: 24 h; complexes 10 nM – 5 μM; DEX 10 pM – 100 nM.
Test [2] deals with A2780cis cisplatin-resistant ovarian carcinoma cells. Description: In vitro cytotoxicity, MTT assay, A2780cis. In kind it is cell-based, human. To be noted: 24 h, MTT; read-out: IC50 ± SD, A2780cis. Here is the method: Figure S5. […] The cells were plated at 96-well dishes and cultured according manufacturer instructions. The tested compounds were applied to the cells for 24 h in concentrations ranging from 0.01 to 50 µM. The tested compounds were applied to the cells for 24 h. The cytotoxicity was assessed by the MTT test, measurements were performed in triplicate, and each cytotoxicity experiment was repeated three times. The data are expressed as IC50 ± SD (μM).
On the technique in general: Tetrazolium assays rely on reduction of a dye to a coloured formazan, in cell work by metabolically active cells.

Test [3] relates to LNCaP androgen-sensitive prostate adenocarcinoma cells. The experiment in a line: In vitro cytotoxicity, MTT assay, LNCaP. In kind it is cell-based, human. The following applies: 24 h, read-out: IC50 ± SD, LNCaP. Here is the method:
Figure S6. […] The cells were plated at 96-well dishes and cultured according manufacturer instructions. The tested compounds were applied to the cells for 24 h in concentrations ranging from 0.01 to 50 µM. The tested compounds were applied to the cells for 24 h. The cytotoxicity was assessed by the MTT test, measurements were performed in triplicate, and each cytotoxicity experiment was repeated three times. The data are expressed as IC50 ± SD (μM).

The subject of test [4] is A549 lung carcinoma cells. Description: In vitro cytotoxicity, MTT assay, A549. The class given is cell-based, human. The following applies: 24 h, read-out: IC50 ± SD, A549. As for the experimental part:
Figure S1. […] The cells were plated at 96-well dishes and cultured according manufacturer instructions. The tested compounds were applied to the cells for 24 h in concentrations ranging from 0.01 to 50 µM. The tested compounds were applied to the cells for 24 h. The cytotoxicity was assessed by the MTT test, measurements were performed in triplicate, and each cytotoxicity experiment was repeated three times. The data are expressed as IC50 ± SD (μM).

Test [5] relates to THP-1 monocytic leukemia cells. Details: method as in PMID 15139770. The following applies: cited from earlier work.
The test system of test [6] is A2780 ovarian carcinoma cells. Description: In vitro cytotoxicity, MTT assay, A2780. In kind it is cell-based, human. To be noted: 24 h, read-out: IC50 ± SD, A2780. As for the experimental part:
Figure S4. […] The cells were plated at 96-well dishes and cultured according manufacturer instructions. The tested compounds were applied to the cells for 24 h in concentrations ranging from 0.01 to 50 µM. The tested compounds were applied to the cells for 24 h. The cytotoxicity was assessed by the MTT test, measurements were performed in triplicate, and each cytotoxicity experiment was repeated three times. The data are expressed as IC50 ± SD (μM).

The subject of test [7] is HeLa cervix epitheloid carcinoma cells. The experiment in a line: In vitro cytotoxicity, MTT assay, HeLa. In kind it is cell-based, human. The following applies: 24 h, read-out: IC50 ± SD, HeLa. Here is the method: Figure S2. […] The cells were plated at 96-well dishes and cultured according manufacturer instructions. The tested compounds were applied to the cells for 24 h in concentrations ranging from 0.01 to 50 µM. The tested compounds were applied to the cells for 24 h. The cytotoxicity was assessed by the MTT test, measurements were performed in triplicate, and each cytotoxicity experiment was repeated three times. The data are expressed as IC50 ± SD (μM).

The test system of test [8] is G361 malignant melanoma cells. Description: In vitro cytotoxicity, MTT assay, G361. The class given is cell-based, human. To be noted: 24 h, read-out: IC50 ± SD, G361. As for the experimental part:
Figure S3. […] The cells were plated at 96-well dishes and cultured according manufacturer instructions. The tested compounds were applied to the cells for 24 h in concentrations ranging from 0.01 to 50 µM. The tested compounds were applied to the cells for 24 h. The cytotoxicity was assessed by the MTT test, measurements were performed in triplicate, and each cytotoxicity experiment was repeated three times. The data are expressed as IC50 ± SD (μM).

`C[C@@H]1C[C@H]2[C@@H]3CCC4=CC(=O)C=C[C@]4(C)[C@@]3(F)[C@@H](O)C[C@]2(C)[C@@]1(O)C(=O)CO` [DEX, dexamethasone]: the “luciferase activity in AZ-GR cells” value in test [1] is given as “strongly, dose-dependently induced”.
For `N.N.[Cl][Pt][Cl]` [cisplatin, reference compound], the IC50 in test [2] was 27 ± 4.6 µM; in test [3] it was 3.8 ± 1.5 µM; in test [4], 25.8 ± 7.1 µM; in test [5], 2 µM; in test [6], 12 ± 0.8 µM; in test [7], 10 ± 2.6 µM. The IC50 in test [8] came to 3.4 ± 0.1 µM.

In general, IC50 refers to the concentration that gives 50% inhibition.

Source of the values: paper PMC3556092, “Cellular responses induced by Cu(II) quinolinonato complexes in human tumor and hepatic cells” (Chemistry Central Journal, 2012).
